Source: patent US20240115557A1, “INHIBITORS OF RNA-GUIDED NUCLEASES AND USES THEREOF” (The Brigham and Women's Hospital, Inc., priority 2022, published 2024)

Molecular target: T1, SaCas9 (Staphylococcus aureus, UniProt J7RUA5)
T1 sequence (J7RUA5 1-1053): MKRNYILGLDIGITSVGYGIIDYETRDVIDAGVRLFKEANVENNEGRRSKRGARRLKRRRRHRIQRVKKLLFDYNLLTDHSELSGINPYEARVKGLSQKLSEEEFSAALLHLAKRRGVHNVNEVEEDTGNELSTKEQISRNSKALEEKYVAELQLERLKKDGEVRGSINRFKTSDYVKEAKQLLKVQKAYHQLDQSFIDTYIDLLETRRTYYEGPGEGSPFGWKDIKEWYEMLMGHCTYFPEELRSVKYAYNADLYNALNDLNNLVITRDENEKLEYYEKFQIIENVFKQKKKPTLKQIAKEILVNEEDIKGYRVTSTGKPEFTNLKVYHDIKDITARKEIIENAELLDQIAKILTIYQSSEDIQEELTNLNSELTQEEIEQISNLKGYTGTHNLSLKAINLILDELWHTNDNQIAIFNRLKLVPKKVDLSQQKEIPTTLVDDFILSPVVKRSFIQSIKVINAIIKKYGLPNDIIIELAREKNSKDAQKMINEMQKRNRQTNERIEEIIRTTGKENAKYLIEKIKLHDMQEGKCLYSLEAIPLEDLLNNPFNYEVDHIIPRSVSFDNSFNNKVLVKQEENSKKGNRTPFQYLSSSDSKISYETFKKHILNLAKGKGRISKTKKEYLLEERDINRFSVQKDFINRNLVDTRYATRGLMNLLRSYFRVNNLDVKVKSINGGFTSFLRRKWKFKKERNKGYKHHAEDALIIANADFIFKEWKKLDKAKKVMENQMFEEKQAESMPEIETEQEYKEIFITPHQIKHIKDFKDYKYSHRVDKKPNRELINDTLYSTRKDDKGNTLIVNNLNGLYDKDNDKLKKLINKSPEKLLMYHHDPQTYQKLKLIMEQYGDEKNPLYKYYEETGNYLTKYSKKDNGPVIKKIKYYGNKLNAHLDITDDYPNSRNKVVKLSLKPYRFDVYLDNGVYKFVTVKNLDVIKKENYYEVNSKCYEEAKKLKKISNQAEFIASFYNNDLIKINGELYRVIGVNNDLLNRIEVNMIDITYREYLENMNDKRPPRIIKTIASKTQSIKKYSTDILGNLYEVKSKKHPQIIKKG
Assay: Strand displacement assay, SaCas9 primary screen
Format: biochemical
Conditions: for Auto Zscore Rep 1 / Auto Zscore Rep 2 / Normalized Zscore Rep 1 / Normalized Zscore Rep 2: SaCas9 primary screen; for Auto Zscore Rep 1 / Normalized Zscore Rep 1: replicate 1; for Auto Zscore Rep 2 / Normalized Zscore Rep 2: replicate 2; for Normalized Zscore Rep 1 / Normalized Zscore Rep 2: weaker potential hits; for 3 sigma Hit: flag 1 = hit at 3 sigma; for 5 sigma Hit: flag 1 = hit at 5 sigma
In short: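 Cas9 RNP (1:1.2 protein:gRNA) pre-formed in 20 mM Tris-HCl pH 7.5, 100 mM KCl, 5 mM MgCl2, used at 10 nM (2× stock) with Alexa-Fluor 647 substrate/quencher at 1 nM/5 nM (2× stock). Reaction ran 2.5 h at 37°C; strand displacement read as fluorescence. Hits called by Z-score: 3–5σ weak, >5σ strong.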

SMILES | Auto Zscore Rep 1 | Auto Zscore Rep 2 | Normalized Zscore Rep 1 | Normalized Zscore Rep 2 | 3 sigma Hit | 5 sigma Hit
CN(C)S(=O)(=O)Nc1ccc(N2CCC(CCN3CCOCC3)CC2)c(C(=O)O)c1 [Compound F294-0900] | −2.121 | 0.2518 | 0.2307 | 0.229 | 1 | 1
CN(C)S(=O)(=O)Nc1ccc(N2CCCC(CN3CCCC3)C2)c(C(=O)O)c1 (stereo not drawn) [Compound F294-0983] | −0.3877 | −0.5875 | 0.2894 | 0.2577 | 1 | 1
